Assay results from ChEMBL document CHEMBL5036357, “2,3-Difunctionalized Benzo[b]thiophene Scaffolds Possessing Potent Antiangiogenic Properties” (J Med Chem, 2022).
Calls of active or inactive are those of the source. The calls are words filed in the database; no cut-off is given here.

How the values were obtained:
[1] = tested on: HUVEC; test: Anti-angiogenesis activity against HUVEC cells assessed as tubule formation at 10 uM incubated for 6 hrs by inverted fluorescence microscopic analysis relative to control; format: functional, Homo sapiens
[2] = tested on: HUVEC; test: Anti-angiogenesis activity against HUVEC cells assessed as tubule formation at 250 nM incubated for 6 hrs by inverted fluorescence microscopic analysis relative to control; format: functional, Homo sapiens
[3] = organism: Mus musculus; test: Antiangiogenic activity in BALB/c mouse assessed as reduction in neovascularization by measuring reduction in hemoglobin concentration at 2 uM by matrigel plug assay; format: functional, organism-based
[4] = organism: Mus musculus; test: Antiangiogenic activity in BALB/c mouse assessed as assessed as reduction in CD31-positive microvessel density in ear tissue at 2 uM measured after 6 days by fluorescence microscopic analysis; format: functional, organism-based; settings: time 6.0 day
[5] = tested on: HUVEC; test: Anti-angiogenesis activity against HUVEC cells assessed as reduction in tubule formation at 50 nM incubated for 6 hrs by inverted fluorescence microscopic analysis relative to control; format: functional, Homo sapiens; parameters: scale not given: the % may be the effect or the level left
[6] = molecular target: T1, Tubulin (Homo sapiens) (UniProt P68371+Q9H4B7+P0DPH7+P68366+Q13509+Q71U36+P04350+Q3ZCM7+P07437+P68363+Q9BQE3+Q6PEY2+Q13885+Q9BVA1+Q9BUF5); test: Induction of microtubule depolymerization in HUVEC assessed as assessed as microtubule network abnormalities at 250 nM incubated for 6 hrs by […] based confocal microscopic analysis; format: tissue-based
[7] = tested on: HUVEC; test: Vascular disruptive effect in HUVEC cells assessed as reduction in tube formation at 250 nM measured after 3 to 24 hrs by calcein-AM staining based fluorescence microscopic analysis; format: functional, cell-based; settings: Homo sapiens, time 3-24 hrs
[8] = molecular target: T1, Tubulin (Homo sapiens); test: Induction of microtubule depolymerization in HUVEC assessed as assessed as loss of endothelial cell morphology at 250 nM incubated for 6 hrs by […] based confocal microscopic analysis
[9] = Metabolic stability in rat liver microsomes assessed as dissociation rate constant; format: ADME, Microsome
[10] = Apparent volume of distribution in Sprague-Dawley rat at 25 mg/kg, IM measured up to 48 hrs; format: ADME, organism-based; settings: in vivo
[11] = organism: Mus musculus; test: Antiangiogenic activity in BALB/c mouse assessed as assessed as reduction in CD31-positive microvessel density in ear tissue at 250 nM measured after 6 days by fluorescence microscopic analysis; format: functional, organism-based; settings: time 6.0 day
[12] = tested on: HUVEC; test: Antiangiogenic activity against VEGF-stimulated HUVEC cells assessed as reduction in endothelial sprouting tubules incubated for 3 days by Cytodex-3 beads based inverted microscopic analysis; format: functional, cell-based; settings: Homo sapiens, dose 250-1000 nM, time 3.0 day
[13] = Elimination rate constant in Sprague-Dawley rat at 25 mg/kg, IM measured up to 48 hrs; format: ADME, organism-based; settings: in vivo
[14] = tested on: HUVEC; test: Inhibition of tube formation in HUVEC measured up to 12 hrs by calcein-AM staining based fluorescence microscopic analysis; format: functional, cell-based; settings: Homo sapiens, dose 250-10000 nM, time hrs <=12
[15] = molecular target: Vascular endothelial growth factor receptor 2 (Homo sapiens) (UniProt P35968); test: Inhibition of VEGFR2 phosphorylation in VEGF-induced HUVEC cells pretreated at 0.5 to 20 uM by Western blot analysis; format: cell-based; settings: dose 0.5-20 µM
Chain of Vascular endothelial growth factor receptor 2 (Homo sapiens) (P35968 whole entry): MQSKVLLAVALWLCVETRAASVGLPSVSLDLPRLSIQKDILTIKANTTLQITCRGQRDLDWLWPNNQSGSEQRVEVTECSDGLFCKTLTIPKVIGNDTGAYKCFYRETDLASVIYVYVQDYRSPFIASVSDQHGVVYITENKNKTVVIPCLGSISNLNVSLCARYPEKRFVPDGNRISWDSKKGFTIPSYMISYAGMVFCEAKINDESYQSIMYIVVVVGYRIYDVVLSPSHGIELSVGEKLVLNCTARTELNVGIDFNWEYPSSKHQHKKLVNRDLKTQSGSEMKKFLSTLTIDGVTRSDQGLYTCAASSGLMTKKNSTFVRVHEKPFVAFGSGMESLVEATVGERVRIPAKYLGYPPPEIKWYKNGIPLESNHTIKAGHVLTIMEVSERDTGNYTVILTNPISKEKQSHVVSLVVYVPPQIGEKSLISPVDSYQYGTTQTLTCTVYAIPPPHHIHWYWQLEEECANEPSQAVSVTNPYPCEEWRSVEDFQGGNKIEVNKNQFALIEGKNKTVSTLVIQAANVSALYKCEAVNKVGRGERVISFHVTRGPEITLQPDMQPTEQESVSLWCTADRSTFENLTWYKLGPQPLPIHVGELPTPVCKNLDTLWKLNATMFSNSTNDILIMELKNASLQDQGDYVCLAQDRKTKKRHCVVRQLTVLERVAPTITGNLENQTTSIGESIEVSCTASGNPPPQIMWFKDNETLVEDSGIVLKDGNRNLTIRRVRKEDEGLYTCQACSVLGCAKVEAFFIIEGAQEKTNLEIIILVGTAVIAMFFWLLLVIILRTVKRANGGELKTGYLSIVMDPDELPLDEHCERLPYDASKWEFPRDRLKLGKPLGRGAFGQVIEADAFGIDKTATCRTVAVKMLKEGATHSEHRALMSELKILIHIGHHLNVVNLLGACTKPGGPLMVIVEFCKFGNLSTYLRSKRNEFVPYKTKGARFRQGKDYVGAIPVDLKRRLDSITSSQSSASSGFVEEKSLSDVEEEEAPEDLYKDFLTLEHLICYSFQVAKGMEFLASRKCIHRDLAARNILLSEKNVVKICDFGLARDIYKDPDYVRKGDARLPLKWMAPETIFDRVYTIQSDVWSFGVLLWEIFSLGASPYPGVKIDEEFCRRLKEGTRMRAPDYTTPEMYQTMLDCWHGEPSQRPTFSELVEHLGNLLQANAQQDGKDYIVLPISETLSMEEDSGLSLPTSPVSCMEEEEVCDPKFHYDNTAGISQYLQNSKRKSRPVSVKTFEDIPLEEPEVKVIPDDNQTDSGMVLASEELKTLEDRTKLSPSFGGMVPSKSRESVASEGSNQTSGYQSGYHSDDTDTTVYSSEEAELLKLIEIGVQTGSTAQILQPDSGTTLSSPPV

[16] = tested on: HUVEC; test: Downregulation of ICAM-1 expression in HUVEC cells at 250 nM measured after 6 hrs by Western blot analysis; format: functional, cell-based; settings: Homo sapiens
[17] = tested on: HUVEC; test: Antiangiogenic activity against HUVEC cells assessed as inhibition of cell migration measured after 12 hrs by scratch wound closure assay relative to control; format: functional, Homo sapiens
[18] = Clearance in Sprague-Dawley rat at 25 mg/kg, IM measured up to 48 hrs; format: ADME, organism-based; settings: in vivo
[19] = Stability in rat plasma assessed as compound remaining measured up to 2 hrs; format: ADME, cell-free; settings: read-out: Stability
[20] = tested on: HUVEC; test: Induction of F-actin depolymerization in HUVEC assessed as loss of endothelial cell morphology at 250 nM incubated for 6 hrs by phalloidin staining based confocal microscopic analysis; settings: Homo sapiens
[21] = tested on: HUVEC; test: Downregulation of p-Src expression in HUVEC cells at 250 nM measured after 6 hrs by Western blot analysis; format: functional, cell-based; settings: Homo sapiens
[22] = molecular target: T1, Tubulin (Homo sapiens); test: Induction of microtubule depolymerization in HUVEC assessed as assessed as plasma membrane blebbing at 250 nM incubated for 6 hrs by […] based confocal microscopic analysis; format: cell membranes
[23] = tested on: HUVEC; test: Induction of F-actin depolymerization in HUVEC assessed as plasma membrane blebbing at 250 nM incubated for 6 hrs by phalloidin staining based confocal microscopic analysis; format: cell membranes; settings: Homo sapiens
[24] = Stability in simulated gastric fluid at pH 1.2 assessed as parent compound remaining after 2 hrs; format: ADME; settings: read-out: Stability
[25] = tested on: MDA-MB-468; test: Antitumor activity against human MDA-MB-468 cells xenografted in CD-1 mouse assessed as reduction in tumor size at 30 mg/kg, iv administered once daily for 21 days; format: functional, organism-based; settings: time 21.0 day
[26] = organism: Mus musculus; test: Antiangiogenic activity in BALB/c mouse assessed as reduction in neovascularization by measuring reduction in hemoglobin concentration at 250 nM by matrigel plug assay; format: functional, organism-based
[27] = tested on: HUVEC; test: Cytotoxicity against HUVEC assessed as reduction in cell proliferation at 250 nM measured after 24 hrs by MTT assay; format: cell-based; settings: human, 0.25 µM
[28] = Cmax in Sprague-Dawley rat at 25 mg/kg, IM measured up to 48 hrs; format: ADME, organism-based; parameters: route intramuscular, dose 25 mg/kg, time <=48; settings: in vivo
[29] = tested on: HUVEC; test: Downregulation of p-Akt expression in HUVEC cells at 250 nM measured after 6 hrs by Western blot analysis; format: functional, cell-based; settings: Homo sapiens
[30] = Stability in culture media assessed as compound remaining at 250 to 500 nM measured up to 24 hrs; format: physicochemical; settings: dose 250-500 nM, read-out: Stability
[31] = Tmax in Sprague-Dawley rat at 25 mg/kg, IM measured up to 48 hrs; format: ADME, organism-based; settings: in vivo
[32] = tested on: HUVEC; test: Induction of F-actin depolymerization in HUVEC assessed as loss of F-actin continuity at 250 nM incubated for 6 hrs by phalloidin staining based confocal microscopic analysis; format: tissue-based; settings: Homo sapiens
[33] = Half life in Sprague-Dawley rat at 25 mg/kg, IM measured up to 48 hrs; format: ADME, organism-based; settings: in vivo
[34] = Intrinsic clearance in rat liver microsomes; format: ADME, Microsome
[35] = tested on: HUVEC; test: Effect on cell cycle distribution in HUVEC cells assessed as accumulation of cells in G2 phase at 250 nM measured after 24 hrs by propidium iodide staining based flow cytometry analysis (Rvb= 1.67%); format: functional, Homo sapiens
[36] = tested on: HUVEC; test: Antiangiogenic activity against HUVEC cells assessed as inhibition of cell migration measured after 24 hrs by scratch wound closure assay; format: functional, cell-based; settings: Homo sapiens
[37] = tested on: HUVEC; test: Inhibition of tube formation in HUVEC at 50 to 100 nM measured up to 12 hrs by calcein-AM staining based fluorescence microscopic analysis; format: functional, cell-based; settings: Homo sapiens, dose 50-100 nM, time hrs <=12
[38] = Stability in simulated intestinal fluid at pH 6.8 assessed as parent compound remaining after 2 hrs; format: ADME; settings: read-out: Stability
[39] = Metabolic stability in rat liver microsomes assessed as half life; format: ADME, Microsome

COc1ccc(Nc2sc3ccccc3c2C#N)cc1
Activity [1]: 57%

N#Cc1c(Nc2ccc(N)cc2)sc2ccccc12
Activity [2]: 51% | Activity [1]: 1%

COc1cc2sc(Nc3ccccc3)c(C#N)c2cc1OC
Activity [1]: 77%

COc1cc2sc(Nc3ccc(O)cc3)c(C#N)c2cc1OC
Activity [2]: 73% | Activity [1]: 0%

CCN(CC)CCNC(=O)c1c(C)[nH]c(/C=C2\C(=O)Nc3ccc(F)cc32)c1C [SUNITINIB]
Activity [3]: Active | Activity [4]: Active | Activity [5]: 43%

N#Cc1c(Nc2cccc(O)c2)sc2ccccc12
Activity [2]: 60% | Activity [1]: 0%

COc1c2c(cc3c(C#N)c(Nc4ccccc4)sc13)OCO2
Activity [1]: 81%

N#Cc1c(Nc2ccccc2O)sc2ccccc12
Activity [2]: 68% | Activity [1]: 19%

COc1cccc(Nc2sc3ccccc3c2C#N)c1
Activity [1]: 81%

N#Cc1c(Nc2ccccc2)sc2ccccc12
Activity [1]: 81%

N#Cc1c(Nc2ccc(Cl)cc2)sc2ccccc12
Activity [2]: 45% | Activity [1]: 45%

N#Cc1c(Nc2ccc(O)cc2)sc2ccccc12
Activity [6]: Active | Activity [7]: Active | Activity [8]: Active | Kdiss [9]: 0.000103 s⁻¹ | Vz [10]: 107.16 L/kg | Activity [2]: 2% | Activity [11]: Active | Activity [12]: Dose-Dependent Effect | k el at 48 h [13]: 3.47e-05 s⁻¹ | inhibition [14]: Dose-Dependent Effect | inhibition [15]: Active | Activity [16]: inactive | inhibition (INH) [17]: 80% | CL/F [18]: 205 mL/min/kg | Activity [1]: 25% | remaining at 2 h [19]: 89.1% | Activity [20]: Active | Activity [21]: Active | Activity [22]: Active | Activity [23]: Active | remaining at 2 h [24]: 90.4% | Activity [25]: Active | Activity [26]: Active | Activity [27]: Non-Toxic | Cmax [28]: 442 ng/mL | Activity [29]: Active | remaining at 24 h, up to 0.5 µM [30]: 78.3% | Tmax [31]: 0.5 h | Activity [32]: Active | half-life [33]: 6 h | CLH [34]: 0.74 L/h | Activity [35]: 1.58% | inhibition [36]: inactive | inhibition [37]: inactive | remaining at 2 h [38]: 89% | half-life [39]: 1.87 h

N#Cc1c(Nc2ccc(F)cc2)sc2ccccc12
Activity [2]: 58% | Activity [1]: 25%

N#Cc1c(Nc2ccccc2)sc2cc3ccccc3cc12
Activity [1]: 50%

N#Cc1c(Nc2ccc(C(F)(F)F)cc2)sc2ccccc12
Activity [2]: 65% | Activity [1]: 24%

N#Cc1c(Nc2ccccc2)sc2cc3c(cc12)OCO3
Activity [1]: 75%

N#Cc1c(Nc2ccc([N+](=O)[O-])cc2)sc2ccccc12
Activity [2]: 37% | Activity [1]: 8%

CC(=O)N(c1ccc(O)cc1)c1sc2ccccc2c1C#N
Activity [2]: 59% | Activity [1]: 36%

COc1cc2sc(Nc3cccc(O)c3)c(C#N)c2cc1OC
Activity [2]: 67% | Activity [1]: 11%

COc1ccc(Nc2sc3c(OC)cc(OC)cc3c2C#N)cc1
Activity [1]: 63%
